Reference: article PMC11143257, “Atomistic mechanism of coupling between cytosolic sensor domain and selectivity filter in TREK K2P channels” (Nature Communications, 2024)
Entries after “also recorded” stand apart in the source; their conditions may differ. Counter-ions that a name gives are not always drawn.

How the values were obtained:
TREK-2* [1] = target: T1, TREK-2* (Homo sapiens, UniProt P57789); experiment: MTS probe modification, inside-out patch-clamp; format: cell-based; design: was truncated from WT and includes amino acids 67 - 355; expressed in transfected cells; host or cells: Xenopus laevis oocytes (cRNA injection), excised inside-out patches; details: 100 µM decyl-MTS for at least 30 s, symmetrical K+, pH 7.4, +40 mV
T1 sequence (P57789 67-355 isoform P57789-4): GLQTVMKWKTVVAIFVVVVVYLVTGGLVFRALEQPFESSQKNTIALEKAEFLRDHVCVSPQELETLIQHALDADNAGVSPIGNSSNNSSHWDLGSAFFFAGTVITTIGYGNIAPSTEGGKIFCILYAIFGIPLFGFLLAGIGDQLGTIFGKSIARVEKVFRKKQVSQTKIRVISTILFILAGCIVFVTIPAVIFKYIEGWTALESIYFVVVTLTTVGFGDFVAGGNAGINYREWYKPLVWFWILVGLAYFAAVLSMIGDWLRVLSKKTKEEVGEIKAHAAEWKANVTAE
Description: First, we measured WT TREK-1, WT TRAAK and TREK-2^* channels without modifiable cysteine residues as references. Upon application of 100 µM of decyl-MTS for at least 30 s to the respective channel in excised membrane patches, no change in current amplitudes was recognized (Fig. 2a and Supplementary Fig. 2a, b). Note, that patch integrity and channel regulation were tested with either 1 mM tetra-pentyl-ammonium (TPenA) and a short pHi activation step. Next, we conducted systematic cysteine scanning mutagenesis of the entire pCt and examined the effect of charged and aliphatic MTS probes. […] Remarkably, all hit residues face toward the inner leaflet of the lipid bilayer (Fig. 2b, inlay).
In this study, the coding sequences of human K2P2.1 TREK-1 (Genbank accession number: NM_172042), rat K2P2.1 TREK-1 (NM_172041.2), human K2P10.1 TREK-2 (NM_021161) and human K2P4.1 TRAAK (AF247042) were used. […]
(§1) Xenopus laevis oocytes were surgically removed from anesthetized adult females, treated with type II collagenase (Sigma-Aldrich/Merck, Germany) and manually defolliculated. […] Currents were recorded with an EPC10 amplifier (HEKA electronics, Germany) and sampled at 10 kHz or higher and filtered with 3 kHz (-3 dB) or higher as appropriate for the sampling rate. […]

TREK-2* [2] = target: T1, TREK-2*; experiment: NFx inhibition, inside-out patch-clamp; format: cell-based; design: was truncated from WT and includes amino acids 67 - 355; expressed in transfected cells; host or cells: Xenopus laevis oocytes (cRNA injection, pFAW vector); details: TREK-2* (amino acids 67 - 355), peer review file
Text: In this study, the coding sequences of human K2P2.1 TREK-1 (Genbank accession number: NM_172042), rat K2P2.1 TREK-1 (NM_172041.2), human K2P10.1 TREK-2 (NM_021161) and human K2P4.1 TRAAK (AF247042) were used. For K^+ channel constructs expressed in Xenopus laevis oocytes the respective K^+ channel subtype coding sequences were subcloned into the dual-purpose vector pFAW. The TREK-2 construct with the extended pCt (TREK-2^*) was truncated from WT and includes amino acids 67 - 355. All mutant channels (point mutations) were obtained by site-directed mutagenesis with custom oligonucleotides. Vector DNA was linearized with NheI or MluI and cRNA synthesized in vitro using the SP6 or T7 AmpliCap Max High Yield Message Maker Kit (Cellscript, USA) and stored at −20 °C (for frequent use) and −80 °C (for long term storage).
as §1

effect on current amplitude (TREK-2* [1])	IC50 (TREK-2* [2]) [µM]	Structure (SMILES)
no change; also recorded: no effect		CCCCCCCCCCSS(C)(=O)=O [decyl-MTS, Decyl-MethaneThioSulfonate]
	3.2 ± 1	NCCC(Oc1ccc(C(F)(F)F)cc1)c1ccccc1 (centres unmarked) [NFx, Norfluoxetine hydrochloride]
